This is an account of results in patent publication US20080044390A1, “Methods and compositions for the treatment of neurodegenerative disorders” (priority 2006, published 2008).

Like-named read-outs stand apart in the source and are kept apart here. *1 amine or outer side, *2 acyl side, *3 side chain or, on linkers, in order; H or OH if unused. Where a SMILES comes first, the peptide text is derived from it. [ ]: non-standard residue; d: D form. The star is where a group is joined. hPhe = N[CH](CCc1ccccc1)C(=O)O; Morpholide = C1CN(*)CCO1; CO = O=C([*:1])[*:2]; CH2F = FC*

Broadly, the EC50 is the concentration that produces a half-maximal response.

This test relates to PC12/HttN90Q103 cells. Kind of test: ATPlite assay, rescue of HttN90Q103-induced cell death. It is filed as cell-based, rat. An excerpt: In this stable PC12 line (PC12/HttN90Q103), transcription of the Htt transgene is driven by an ecdysone-regulated promoter such that the expression of HttN90Q103 can be turned on or off by the addition or removal of the non-steroidal ecdysone analog tebufenozide (teb).
Using the engineered PC12/HttN90Q103 cell line together with Perkin Elmer's ATPlite™ assay kit or CellTiter-Blue™ assay, a high throughput assay to screen small molecules for their ability to prevent mutant Htt exon 1-induced cell death was developed and optimized.
The following formulas were used to calculate mutant Htt-induced cytotoxicity and test compound rescue: % killing=[(un-induced−induced-DMSO treated)/un-induced]×100 % rescue=[(drug treated−induced-DMSO treated)/(un-induced−induced-DMSO treated)]×100
For single-agent ranking, the assay was performed in 384-well plates to obtain duplicate dose response curves in 12-step dilutions with a dosing ratio f=2 over 3 orders of magnitude. […]
Day 1—Add Compounds 4 hours post-induction • 1) Remove compound plates from dessicator. • 2) Using the PlateMate, prepare dilution plate with 100 μL per well of the complete cell medium at room temperature in clear untreated 384-well plates. • 3) Using the MiniTrak, make compound dilution plates: 1 μL from each well of stock plates into 100 μL of media in the dilution plate for a 1:100 dilution (10× stock in media). • 4) Using the MiniTrak, add 4.5 μL of the diluted stock to each well of cells in assay plates. • 5) Make positive control solution: dilute 20 mM stock of BOC-D-FMK in media for a 10× stock. • 6) Manually add 4.5 μL positive control to C1-N1. • 7) Incubate plates at 37° C. for three days. • (for ranking combinations, steps 5 and 6 are omitted as there is positive control on the compound plates)
Day 4—Perform ATPlite™ Assay • 1) Take plates out of the incubator. • 2) Using the PlateMate, add 40 μL of ATPlite™ 1-step solution (Perkin Elmer) to each well of the assay plates. • 3) Wait ten minutes to allow plates to dark-adapt. • 4) Read luminescence intensity in Wallac plate reader using […]
In general terms: In ATP-based viability assays light output follows the ATP content of the culture.

[1] abbreviates: Rattus norvegicus, PC-12, ATPlite, single agent, 250 nM tebufenozide induction, read-out: Max Effect (% rescue).
Where [2] appears, read: Rattus norvegicus, PC-12, ATPlite, single agent, sigmoidal fit of 12-step dose response, read-out: EC50.
[3] abbreviates: Rattus norvegicus, PC-12, read-out: Max Effect (% rescue).
The mark [4] stands for this setting: ATPlite, single agent, 250 nM tebufenozide induction.
Setting [5] is: ATPlite, single agent, sigmoidal fit of 12-step dose response, read-out: EC50.

Turning to `O=S(=O)(c1cccc2cnccc12)N1CCCNCC1` [Fasudil], the Emax under setting [1] was 26%. Besides, the EC50 under setting [2] came to 9.9 µM. The matching figures for `O=C(NO)c1ccccc1` [Benzohydroxamic acid]: 15% and 6.9 µM. Turning to `C[C@]12CCC(=O)C[C@@H]1CC[C@@H]1[C@@H]2CC[C@]2(C)[C@@H](O)CC[C@@H]12` [Androstanolone], the EC50 (Rattus norvegicus, PC-12) is 8 µM. The Emax under setting [3] came to 15%. The matching figures for `CC[C@@H](C(=O)[C@@H](C)[C@@H](O)[C@H](C)[C@@H]1O[C@@H]([C@@H](CC)C(=O)O)CC[C@@H]1C)[C@H]1O[C@]2(C=C[C@@H](O)[C@]3(CC[C@@](C)([C@H]4CC[C@](O)(CC)[C@H](C)O4)O3)O2)[C@H](C)C[C@@H]1C` [Salinomycin]: 0.2 µM and 24%. `CC(=O)ON=C1C(=O)N(Cc2cc(Cl)ccc2Cl)c2ccc(Cl)cc21` [UCH-L1 inhibitor]: under setting [4], the “Max Effect (% rescue)” value came to 21%. Besides, the half-maximal effective concentration (EC50) under setting [5] worked out at 0.5 µM. For the molecule `CC[C@@H](C(=O)O)[C@@H]1O[C@@H]([C@@H](C)[C@H](O)[C@H](C)C(=O)[C@H](CC)[C@H]2O[C@]3(C=C[C@@H](O)[C@]4(CC[C@@](C)([C@H]5CC[C@](O)(CC)[C@H](C)O5)O4)O3)[C@H](C)C[C@@H]2C)[C@@H](C)C[C@@H]1C` [Narasin], the Emax under setting [1] is 15%. Besides, under setting [2], the 50% effective concentration (EC50) amounted to 0.1 µM.

As for `O=S(=O)([O-])[O-].[O]=[V+2]` [Vanadyl], the “Max Effect (% rescue)” value under setting [4] is on record as 19%. Also, the EC50 under setting [5] is 0.6 µM. The like results for `O=C(CF)C(CCc1ccccc1)NC(=O)C(Cc1ccccc1)NC(=O)N1CCOCC1` (centres unmarked) [BML-248, N-morpholineurea-phenylalanyl-homophenylalanylfluoromethyl ketone] ({Morpholide-CO}-Phe-[hPhe]-CH2F; configuration not given here) were, in that order, 24% and 7.1 µM. `CCN(CCO)CCCC(C)Nc1ccnc2cc(Cl)ccc12` (centres unmarked) [Hydroxychloroquine]: the Emax under setting [1] came out at 29%. Further, the concentration for a half-maximal effect (EC50) under setting [2] is 5.2 µM. The matching figures for `CCCCC1C(=O)NN(c2ccccc2)C1=O` (centres unmarked) [Mofebutazone]: 19% and 5.6 µM.

Take `N#C/C(=C\c1ccc(O)c(O)c1)C(N)=O` [Tyrphostin 46]: under setting [4], the “Max Effect (% rescue)” value was found to be 23%. Moreover, the EC50 under setting [5] stood at 23.5 µM. For `CN1CCN(C(=O)OC2c3nccnc3C(=O)N2c2ccc(Cl)cn2)CC1` (centres unmarked) [Zopiclone], the EC50 (Rattus norvegicus, PC-12) was 6.7 µM. Moreover, the Emax under setting [3] is 25%. As for `O=C1Cc2c([nH]c3ccc(Br)cc23)-c2ccccc2N1` [Kenpaullone], the Emax under setting [1] came out at 87%. For the same molecule, the half-maximal effective concentration (EC50) under setting [2] turned out to be 4.7 µM.

Take `O=C1Nc2ccc3ncsc3c2/C1=C/c1cnc[nH]1` [PKR inhibitor]: the “Max Effect (% rescue)” value under setting [4] is 124%. The EC50 under setting [5] worked out at 1.2 µM.

Turning to `CC(C=NNC(=N)N)=NNC(=N)N` [Methylglyoxal bis(guanylhydrazone)], the Emax under setting [1] was 79%. The EC50 under setting [2] worked out at 7.7 µM. In the case of `CC(=O)S[C@@H]1CC2=CC(=O)CC[C@]2(C)[C@H]2CC[C@@]3(C)[C@@H](CC[C@@]34CCC(=O)O4)[C@H]12` [Spironolactone], the Emax under setting [1] was 22%. For the same molecule, the EC50 under setting [2] was 9.1 µM.

Take `CC(=O)C(=O)O` [Pyruvate]: the Emax under setting [1] was found to be 5%. Besides, under setting [2], the half-maximal effective concentration (EC50) was 1.2 µM. The like results for `Nc1c2c(nc3ccccc13)CCCC2` [Tacrine] were, in that order, 15% and 39.6 µM. The matching figures for `N=C(N)c1ccc(/N=N/Nc2ccc(C(=N)N)cc2)cc1` [Diminazene]: 35% and 5.6 µM.

With `O=c1c(O)c(-c2ccc(O)c(O)c2)oc2cc(O)cc(O)c12` [Quercetin], the Emax under setting [1] came to 23%. The EC50 under setting [2] is 16.4 µM. For the molecule `CO[C@@H]1C[C@@H](C[C@H]2CC[C@H](C)[C@H]([C@@H](C)C(=O)O)O2)O[C@]2(O[C@](C)([C@H]3CC[C@@](C)([C@@H]4O[C@@H]([C@H]5O[C@@](O)(CO)[C@H](C)C[C@@H]5C)C[C@@H]4C)O3)C[C@H]2C)[C@@H]1C` [Nigericin], the Emax under setting [1] worked out at 36%. Take `CN(CCOc1ccc(CC2SC(=O)NC2=O)cc1)c1ccccn1` (centres unmarked) [Rosiglitazone]: under setting [1], the Emax came out at 13%. In addition, the half-maximal effective concentration (EC50) under setting [2] turned out to be 8.5 µM. In the case of `Nc1ncnc2c1c(I)cn2[C@@H]1C[C@H](N)[C@@H](O)[C@H]1O` [Agent A-134974, N^7-[(1′R,2′S,3′R,4′S)-2′,3′-dihydroxy-4′-aminocyclopentyl]-4-amino-5-iodopyrrolopyrimidine], under setting [4], the “Max Effect (% rescue)” value is 22%. Under setting [5], the 50% effective concentration (EC50) was 13.3 µM. For the molecule `O=C(/C=C/c1ccc(O)cc1)c1ccc(O)cc1O` [Isoliquiritigenin], the Emax under setting [1] worked out at 27%. The EC50 under setting [2] amounted to 12.5 µM. The matching figures for `c1ccc(CN(CCN(Cc2ccccn2)Cc2ccccn2)Cc2ccccn2)nc1` [TPEN, N,N,N′,N′-tetrakis(2-pyridylmethyl)-ethylenediamine]: 15% and 3 µM.

`CCCC(=O)Nc1ncnc2c1ncn2[C@@H]1O[C@@H]2COP(=O)(O)O[C@H]2[C@H]1OC(=O)CCC` [Bucladesine]: under setting [1], the Emax worked out at 18%. For the same molecule, the concentration for a half-maximal effect (EC50) under setting [2] worked out at 19.6 µM. The matching figures for `CCN(CC)Cc1cc(Nc2ccnc3cc(Cl)ccc23)ccc1O` [Amodiaquine]: 62% and 12.3 µM. The like results for `Cc1ncc(CSSCc2cnc(C)c(O)c2CO)c(CO)c1O` [Pyritinol] were, in that order, 17% and 15.1 µM. Regarding `CCCC(CCC)C(=O)O` [Divalproex], the Emax under setting [1] worked out at 19%. Under setting [2], the 50% effective concentration (EC50) amounted to 15.2 µM. As to `OC[C@H]1O[C@@H](n2cnc3cc(Cl)c(Cl)cc32)[C@H](O)[C@@H]1O` [5,6-dichloro-1-β-D-ribofuranosylbenzimidazole], under “Rattus norvegicus, PC-12”, the half-maximal effective concentration (EC50) came out at 5.1 µM. The Emax under setting [3] came out at 26%. Take `O=c1c(O)c(-c2ccc(O)cc2)oc2cc(O)cc(O)c12` [Kaempferol]: the Emax under setting [1] is 15%. The concentration for a half-maximal effect (EC50) under setting [2] was 12.2 µM. The like results for `O=C1Cc2c([nH]c3ccc([N+](=O)[O-])cc23)-c2ccccc2N1` [Alsterpaullone] were, in that order, 64% and 1.8 µM. The like results for `C=C[C@@]1(C)CC(=O)[C@]2(O)[C@@]3(C)[C@@H](O)CCC(C)(C)[C@@H]3[C@H](O)[C@H](OC(C)=O)[C@@]2(C)O1` [Forskolin] were, in that order, 18% and 0.2 µM. The like results for `O=C(Nc1cccc(C2=NCCN2)c1)Nc1cccc(C2=NCCN2)c1` [Imidocarb] were, in that order, 24% and 15.9 µM. As to Maduramicin NH4, the “Max Effect (% rescue)” value under setting [4] is on record as 19%. In addition, the EC50 under setting [5] is 0.04 µM. `COC(=O)CC(NC(=O)OC(C)(C)C)C(=O)CF` [Caspase inhibitor III (BOC-D-fmk)]: for the setting “20 μM, positive control, 72 hours following tebufenozide induction”, the “% rescue” value is given as “More than 50%”. Further, the “Max Effect (% rescue)” value under setting [4] is on record as 119%. In addition, the EC50 under setting [5] came to 3.9 µM. As to `CC(C)[C@H](NC(=O)c1ccc2ccccc2n1)C(=O)N[C@@H](CC(=O)O)C(=O)COc1c(F)cccc1F` [Q-VD-OPH], the “Max Effect (% rescue)” value under setting [4] came to 72%. Moreover, the EC50 under setting [5] is 0.6 µM.

For the molecule `CCN(CC)CCCC(C)Nc1ccnc2cc(Cl)ccc12` (centres unmarked) [Chloroquine], the EC50 (Rattus norvegicus, PC-12) was 9.7 µM. For `O=C1Nc2ccccc2/C1=C1/Nc2ccccc2/C1=N\O` [Indirubin-3′-monooxime], the “Max Effect (% rescue)” value under setting [4] amounted to 30%. Further, the 50% effective concentration (EC50) under setting [5] is 2.4 µM. Consider `NC(=O)NO` [Hydroxyurea], for which the Emax under setting [1] amounted to 22%. Further, the EC50 under setting [2] was 7.5 µM. As for `NC1CCN(c2nc3c(cc2F)c(=O)c(C(=O)O)cn3-c2ccc(F)cc2F)C1` (centres unmarked) [Tosufloxacin], the Emax under setting [1] stood at 20%. Besides, the EC50 under setting [2] stood at 9.9 µM. As to `CC1=C(O)C(=O)C=C2C1=CC=C1[C@@]2(C)CC[C@@]2(C)[C@@H]3C[C@](C)(C(=O)O)CC[C@]3(C)CC[C@]12C` [Celastrol], for the setting “Rattus norvegicus, PC-12”, the EC50 came out at 0.3 µM. Also, the Emax under setting [3] is 19%. With `O=c1c(O)c(-c2ccc(O)c(O)c2)oc2cc(O)ccc12` [Fisetin], the Emax under setting [1] amounted to 52%. Besides, the concentration giving a half-maximal response (EC50) under setting [2] came to 12.4 µM. The like results for `COc1ccc2c(c1)/C(=C/c1cnc[nH]1)C(=O)N2` [SU9516, 3-[1-(3H-imidazol-4-yl)-meth-(Z)-ylidene]-5-methoxy-1,3-dihydro-indol-2-one] were, in that order, 66% and 3.3 µM. Turning to `CC(C)c1ccc2oc3nc(N)c(C(=O)O)cc3c(=O)c2c1` [Amlexanox], the EC50 (Rattus norvegicus, PC-12) stood at 5.7 µM. For the same molecule, under setting [3], the Emax turned out to be 18%.
